Where two headings read alike, the source gives them in different places.
Experiments:
A673 cells = assay: Cellular potency in A673 cells; type: cell-based; details: for IC50: Homo sapiens, A673, Table 3, A673 cells; for Ratio of Biochemical Potency: Cellular Potency: Table 3, ratio >0.9 is an indicator of Cyclin K degradation
Human CDK12 wt/CycK = Human CDK12 wt/CycK (Homo sapiens (Human), UniProt Q9NYV4); assay: Radiometric protein kinase assay (33PanQinase Activity Assay), CDK12; type: biochemical; details: for CDK7/CDK12: ratio greater than 1 indicated selectivity for CDK12
Method: (§1) A radiometric protein kinase assay (^33PanQinase® Activity Assay) was used for measuring the kinase activity of the two protein kinases (CDK12/CDK7). All kinase assays were performed in 96-well FlashPlates™ from PerkinElmer (Boston, MA, USA) in a 50 μL reaction volume.
(§2) The reaction cocktail was pipetted in four steps in the following order: • 20 μL of assay buffer (standard buffer) • 5 μL of ATP solution (in H2O) • 5 μL of test compound (in 10% DMSO) • 10 μL of substrate/10 μL of enzyme solution (premixed)
(§3) The reaction mixture was incubated at 30° C. for 60 min and then stopped by the addition of 2% (v/v) H3PO4. Plates were aspirated and washed two times with 200 μL 0.9% (w/v) NaCl. Incorporation of ^33Pi was determined with a microplate scintillation count (Microbeta, Wallac).
(§4) The fitting method used was a least-squares fit.

Human CDK7/CycH/MAT1 = Human CDK7/CycH/MAT1 (Homo sapiens (Human), UniProt P50613); assay: Radiometric protein kinase assay (33PanQinase Activity Assay), CDK7; type: biochemical; details: Table 1; ATP 3 μM
Method: as §1, §2, §3, §4

[1] = Table 1, ATP 0.3 μM, read-out: CDK12 IC50
[2] = Table 3, CDK12 kinase activity, read-out: Biochemical Potency IC50

Human CDK7/CycH/MAT1, sequence (P50613 whole entry): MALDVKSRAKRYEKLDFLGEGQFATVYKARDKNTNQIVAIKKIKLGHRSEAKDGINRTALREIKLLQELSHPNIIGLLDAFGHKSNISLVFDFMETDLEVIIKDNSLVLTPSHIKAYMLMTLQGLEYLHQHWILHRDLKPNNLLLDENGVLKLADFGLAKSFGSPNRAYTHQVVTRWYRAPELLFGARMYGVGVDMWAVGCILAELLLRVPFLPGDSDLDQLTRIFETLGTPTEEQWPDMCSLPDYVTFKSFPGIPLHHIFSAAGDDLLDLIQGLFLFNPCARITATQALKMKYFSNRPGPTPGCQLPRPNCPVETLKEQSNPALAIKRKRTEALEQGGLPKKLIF
Human CDK7/CycH/MAT1, sequence (P51946 whole entry partner): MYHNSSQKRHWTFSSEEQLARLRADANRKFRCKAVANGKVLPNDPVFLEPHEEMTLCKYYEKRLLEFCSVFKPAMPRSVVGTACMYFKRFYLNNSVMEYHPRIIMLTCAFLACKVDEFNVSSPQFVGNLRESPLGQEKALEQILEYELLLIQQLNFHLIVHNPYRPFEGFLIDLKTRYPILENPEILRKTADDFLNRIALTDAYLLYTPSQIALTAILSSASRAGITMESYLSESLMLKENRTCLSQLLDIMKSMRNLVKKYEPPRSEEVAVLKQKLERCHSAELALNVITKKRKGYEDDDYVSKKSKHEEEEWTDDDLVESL
Human CDK7/CycH/MAT1, sequence (P51948 whole entry partner): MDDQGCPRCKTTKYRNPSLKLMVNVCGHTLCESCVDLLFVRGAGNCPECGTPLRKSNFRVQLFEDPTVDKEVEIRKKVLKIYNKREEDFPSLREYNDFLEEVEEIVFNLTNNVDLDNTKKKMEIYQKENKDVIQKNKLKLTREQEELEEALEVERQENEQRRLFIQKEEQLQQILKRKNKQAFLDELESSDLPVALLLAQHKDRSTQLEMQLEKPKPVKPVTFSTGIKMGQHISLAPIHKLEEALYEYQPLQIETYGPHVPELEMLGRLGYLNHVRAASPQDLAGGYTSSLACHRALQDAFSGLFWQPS
Human CDK12 wt/CycK, sequence (Q9NYV4 whole entry): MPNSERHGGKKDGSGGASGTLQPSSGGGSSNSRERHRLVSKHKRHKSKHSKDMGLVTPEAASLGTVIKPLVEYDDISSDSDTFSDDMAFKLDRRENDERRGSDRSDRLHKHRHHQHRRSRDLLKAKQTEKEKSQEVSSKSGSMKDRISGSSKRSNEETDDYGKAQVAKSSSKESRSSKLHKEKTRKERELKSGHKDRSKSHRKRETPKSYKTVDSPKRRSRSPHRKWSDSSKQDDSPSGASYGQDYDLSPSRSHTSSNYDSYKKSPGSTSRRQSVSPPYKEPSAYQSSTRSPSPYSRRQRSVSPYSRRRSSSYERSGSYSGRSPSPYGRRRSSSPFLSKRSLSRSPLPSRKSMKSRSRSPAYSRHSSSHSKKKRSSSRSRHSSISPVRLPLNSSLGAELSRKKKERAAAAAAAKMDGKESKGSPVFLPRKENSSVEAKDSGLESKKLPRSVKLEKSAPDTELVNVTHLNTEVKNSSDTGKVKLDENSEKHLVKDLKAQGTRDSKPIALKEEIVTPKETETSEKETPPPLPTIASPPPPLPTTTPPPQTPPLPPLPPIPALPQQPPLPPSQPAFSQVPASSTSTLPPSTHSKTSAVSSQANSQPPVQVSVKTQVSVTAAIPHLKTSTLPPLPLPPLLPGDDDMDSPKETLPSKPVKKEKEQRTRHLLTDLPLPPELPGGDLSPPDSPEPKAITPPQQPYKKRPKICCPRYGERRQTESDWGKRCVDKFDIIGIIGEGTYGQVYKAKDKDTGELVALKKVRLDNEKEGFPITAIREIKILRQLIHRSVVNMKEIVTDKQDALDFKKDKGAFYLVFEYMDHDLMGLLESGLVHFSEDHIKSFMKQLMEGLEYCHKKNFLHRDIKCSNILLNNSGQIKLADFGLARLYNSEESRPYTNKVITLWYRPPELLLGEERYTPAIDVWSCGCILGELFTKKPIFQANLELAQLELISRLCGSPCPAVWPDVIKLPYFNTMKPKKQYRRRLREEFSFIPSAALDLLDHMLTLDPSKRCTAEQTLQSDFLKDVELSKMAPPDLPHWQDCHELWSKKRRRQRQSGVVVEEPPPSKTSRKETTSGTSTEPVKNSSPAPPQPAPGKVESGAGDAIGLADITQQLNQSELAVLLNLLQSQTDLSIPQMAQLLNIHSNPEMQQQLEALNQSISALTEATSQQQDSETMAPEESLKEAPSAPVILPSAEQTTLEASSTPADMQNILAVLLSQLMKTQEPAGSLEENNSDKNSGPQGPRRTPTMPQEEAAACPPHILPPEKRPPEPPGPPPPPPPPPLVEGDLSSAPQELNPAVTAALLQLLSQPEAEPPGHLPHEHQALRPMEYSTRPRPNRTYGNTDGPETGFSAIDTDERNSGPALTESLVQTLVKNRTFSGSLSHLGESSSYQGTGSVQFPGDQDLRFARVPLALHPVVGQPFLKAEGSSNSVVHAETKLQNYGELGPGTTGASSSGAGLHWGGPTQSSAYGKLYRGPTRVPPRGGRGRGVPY
Human CDK12 wt/CycK, sequence (O75909 whole entry partner): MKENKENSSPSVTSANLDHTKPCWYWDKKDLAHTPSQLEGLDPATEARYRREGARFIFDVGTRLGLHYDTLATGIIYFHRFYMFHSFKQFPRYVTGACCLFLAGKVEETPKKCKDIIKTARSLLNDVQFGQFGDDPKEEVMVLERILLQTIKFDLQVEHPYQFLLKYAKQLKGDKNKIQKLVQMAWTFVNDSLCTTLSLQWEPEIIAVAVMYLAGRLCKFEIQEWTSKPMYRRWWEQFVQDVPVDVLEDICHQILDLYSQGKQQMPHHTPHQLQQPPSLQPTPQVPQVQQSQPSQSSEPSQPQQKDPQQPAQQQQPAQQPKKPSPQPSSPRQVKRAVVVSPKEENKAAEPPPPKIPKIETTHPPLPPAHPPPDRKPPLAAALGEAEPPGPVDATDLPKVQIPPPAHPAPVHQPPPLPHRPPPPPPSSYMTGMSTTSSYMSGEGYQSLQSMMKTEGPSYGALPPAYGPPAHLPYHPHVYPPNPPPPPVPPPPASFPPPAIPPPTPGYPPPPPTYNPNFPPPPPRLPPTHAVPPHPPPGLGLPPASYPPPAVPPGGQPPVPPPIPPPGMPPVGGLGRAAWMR

Row | IC50 (A673 cells) | IC50 (Human CDK12 wt/CycK; [1]) | CDK7/CDK12 (Human CDK12 wt/CycK; Table 1) | IC50 (Human CDK12 wt/CycK; [2]) | IC50 (Human CDK7/CycH/MAT1) | SMILES | Ratio of Biochemical Potency: Cellular Potency (A673 cells)
1 | 2.7 nM | 167 nM | 0.2 | 167 nM | 28 nM | CC(C)c1cnn2c(NCc3cnc4ccccc4c3)cc(NC[C@H]3CCNC[C@@H]3O)nc12 [H-APPAMP-021, (3R,4R)-4-(((3-isopropyl-7-((quinolin-3-ylmethyl)amino)pyrazolo[1,5-a]pyrimidin-5-yl)amino)methyl)piperidin-3-ol] | 62
2 | 10.3 nM | 164 nM | 3.8 | 164 nM | 622 nM | Cc1cccn2cc(CNc3cc(NC[C@H]4CCNC[C@@H]4O)nc4c(C5CC5)cnn34)nc12 [H-APPAMP-022, (3R,4R)-4-(((3-cyclopropyl-7-(((8-methylimidazo[1,2-a]pyridin-2-yl)methyl)amino)pyrazolo[1,5-a]pyrimidin-5-yl)amino)methyl)piperidin-3-ol] | 16
3 | 296 nM | 702 nM | 0.1 | 702 nM | 102 nM | CC(C)c1cnn2c(NCc3nc4ccccn4c3C(F)(F)F)cc(NC[C@H]3CCNC[C@@H]3O)nc12 [H-APPAMP-023, (3R,4R)-4-(((3-isopropyl-7-(((3-(trifluoromethyl)imidazo[1,2-a]pyridin-2-yl)methyl)amino)pyrazolo[1,5-a]pyrimidin-5-yl)amino)methyl)piperidin-3-ol] | 2.4
4 | 19.8 nM | 93 nM | 3.0 | 93 nM | 283 nM | CC(C)c1cnn2c(NCc3nc4ccccn4c3C3CC3)cc(NC[C@H]3CCNC[C@@H]3O)nc12 [H-APPAMP-024, (3R,4R)-4-(((7-(((3-cyclopropylimidazo[1,2-a]pyridin-2-yl)methyl)amino)-3-isopropylpyrazolo[1,5-a]pyrimidin-5-yl)amino)methyl)piperidin-3-ol] | 4.7
5 | 2.5 nM | 31 nM | 2.2 | 31 nM | 69 nM | CCc1cnn2c(NCc3cn4cccc(C)c4n3)cc(NC[C@H]3CCNC[C@@H]3O)nc12 [H-APPAMP-026, (3R,4R)-4-(((3-ethyl-7-(((8-methylimidazo[1,2-a]pyridin-2-yl)methyl)amino)pyrazolo[1,5-a]pyrimidin-5-yl)amino)methyl)piperidin-3-ol] | 12
6 | 1.6 nM | 28 nM | 4.5 | 28 nM | 127 nM | COc1cccc2nc(CNc3cc(NC[C@H]4CCNC[C@@H]4O)nc4c(C5CC5)cnn34)cn12 [H-APPAMP-027, (3R,4R)-4-(((3-cyclopropyl-7-(((5-methoxyimidazo[1,2-a]pyridin-2-yl)methyl)amino)pyrazolo[1,5-a]pyrimidin-5-yl)amino)methyl)piperidin-3-ol] | 18
7 | 13.1 nM | 37 nM | 1.8 | 37 nM | 68 nM | O[C@H]1CNCC[C@@H]1CNc1cc(NCc2cn3nc(C4CC4)ccc3n2)n2ncc(C3CC3)c2n1 [H-APPAMP-028, (3R,4R)-4-(((3-cyclopropyl-7-(((6-cyclopropylimidazo[1,2-b]pyridazin-2-yl)methyl)amino)pyrazolo[1,5-a]pyrimidin-5-yl)amino)methyl)piperidin-3-ol] | 2.8
8 | 18.5 nM | 65 nM | 3.0 | 65 nM | 196 nM | Cc1cccn2cc(CNc3cc(NC[C@H]4CCNC[C@@H]4O)nc4c(C5CCC5)cnn34)nc12 [H-APPAMP-029, (3R,4R)-4-(((3-cyclobutyl-7-(((8-methylimidazo[1,2-a]pyridin-2-yl)methyl)amino)pyrazolo[1,5-a]pyrimidin-5-yl)amino)methyl)piperidin-3-ol] | 3.5
9 | 8.7 nM | 75 nM | 3.7 | 75 nM | 274 nM | O[C@H]1CNCC[C@@H]1CNc1cc(NCc2cn3c(C4CC4)cccc3n2)n2ncc(C3CC3)c2n1 [H-APPAMP-030, (3R,4R)-4-(((3-cyclopropyl-7-(((5-cyclopropylimidazo[1,2-a]pyridin-2-yl)methyl)amino)pyrazolo[1,5-a]pyrimidin-5-yl)amino)methyl)piperidin-3-ol] | 8.6
10 | 2.2 nM | 24 nM | 38.3 | 24 nM | 919 nM | CCc1cnn2c(NCc3cn4c(C)cccc4n3)cc(NC[C@H]3CCNC[C@@H]3O)nc12 [H-APPAMP-031, (3R,4R)-4-(((3-ethyl-7-(((5-methylimidazo[1,2-a]pyridin-2-yl)methyl)amino)pyrazolo[1,5-a]pyrimidin-5-yl)amino)methyl)piperidin-3-ol] | 11
11 | 6.1 nM | 45 nM | 19.1 | 45 nM | 859 nM | Cc1cc(C)n2cc(CNc3cc(NC[C@H]4CCNC[C@@H]4O)nc4c(C5CC5)cnn34)nc2c1 [H-APPAMP-032, (3R,4R)-4-(((3-cyclopropyl-7-(((5,7-dimethylimidazo[1,2-a]pyridin-2-yl)methyl)amino)pyrazolo[1,5-a]pyrimidin-5-yl)amino)methyl)piperidin-3-ol] | 7.4
12 | 5.7 nM | 62 nM | 17.1 | 62 nM | 1060 nM | O[C@H]1CNCC[C@@H]1CNc1cc(NCc2cn3cc(C(F)(F)F)cc(Cl)c3n2)n2ncc(C3CC3)c2n1 [H-APPAMP-033, (3R,4R)-4-(((7-(((8-chloro-6-(trifluoromethyl)imidazo[1,2-a]pyridin-2-yl)methyl)amino)-3-cyclopropylpyrazolo[1,5-a]pyrimidin-5-yl)amino)methyl)piperidin-3-ol] | 11
13 | 12.1 nM | 173 nM | 0.9 | 173 nM | 152 nM | CCc1cnn2c(NCc3cn4c(C(F)(F)F)cccc4n3)cc(NC[C@H]3CCNC[C@@H]3O)nc12 [H-APPAMP-034, (3R,4R)-4-(((3-ethyl-7-(((5-(trifluoromethyl)imidazo[1,2-a]pyridin-2-yl)methyl)amino)pyrazolo[1,5-a]pyrimidin-5-yl)amino)methyl)piperidin-3-ol] | 14
14 | 17.3 nM | 44 nM | 29.3 | 44 nM | 1290 nM | O[C@H]1CNCC[C@@H]1CNc1cc(NCc2cn3ccc(C(F)(F)F)cc3n2)n2ncc(C3CC3)c2n1 [H-APPAMP-035, (3R,4R)-4-(((3-cyclopropyl-7-(((7-(trifluoromethyl)imidazo[1,2-a]pyridin-2-yl)methyl)amino)pyrazolo[1,5-a]pyrimidin-5-yl)amino)methyl)piperidin-3-ol] | 2.5

Source: patent US12473303B2, “4-[[(7-aminopyrazolo[1,5-a]pyrimidin-5-yl)amino methyl]piperidin-3-ol compounds and their therapeutic use” (CARRICK THERAPEUTICS LIMITED, priority 2019, dated 2025)
